Results reported in PMC10764104, “Discovery of Molecular Glue Degraders via Isogenic Morphological Profiling” (ACS Chemical Biology, 2023).

Experiments:
[1] = CellTiter-Glo cytotoxicity of selected compounds (manual, 72 h); type: cell-based, human; conditions: human, up to 10 μM
Procedure: (§1) Assessment of gene expression and essentiality in RKO WT
(§2) Fluorescence Polarization‐based competition assay
EC50 values were calculated with GraphPad Prism […]
the FP value of free tracer. […]
instructions. […] For the screening of the whole SuFEx
Data visualization was done with seaborn
(https://seaborn.pydata.org, version 0.12.2). […]
compounds. (F) Analysis of the cytotoxicity of compounds with treatment‐centric features related to FL2‐ […]
Synthesis and in Vitro Evaluation of Diverse Heterocyclic Diphenolic Compounds as Inhibitors of DYRK1A.
(7) Zhang, J.‐H.; Chung, T. D. Y.; Oldenburg, K. R. A Simple Statistical Parameter for Use in Evaluation and Validation of High Throughput Screening Assays. SLAS Discov.

RKO WT cells = conditions: 48 h, up to 13.5 μM tested
Excerpt: Prior to screening the compound library in the isogenic CPA, we assessed their CRBN binding affinities using a fluorescence-polarization-based competition assay with recombinant DDB1-CRBN and the fluorescent tracer 16 (Figure S2). […] We also assessed the cytotoxicity of the CRBN binders in RKO wild-type (WT) cells to determine the appropriate treatment concentration.
as §1
Public datasets on the transcriptome and essentiality of a protein‐encoding gene for RKO (cell line ID: ACH‐000943) were retrieved from DepMap Public 23Q2 (https://depmap.org/portal/, accessed on 14 August 2023). […]
as §2
Fluorescence Polarization assays were performed in 384‐well, Low Volume, Black, Round Bottom, Polystyrene Nonbinding surface Microplates (Corning, #4514). […] Fluorescence polarization values were determined with a PerkinElmer Envision reader with FITC FP dual mirror and FITC FP 480 excitation filter and FITC FP 535 emission filters. Fluorescence polarization values of a 10x serial dilution (10 nM to 100 µM) of the test compounds were determined in triplicates. EC50 values were calculated with GraphPad Prism software (version 10.0.2) with a non‐linear fit function (4PL sigmoidal curve fit) adjusting the bottom constrain to the FP value of free tracer. […]

## CN(Cc1ncc(C2CC2)o1)S(=O)(=O)Oc1ccc(Nc2ccc3c(c2)C(=O)N(C2CCC(=O)NC2=O)C3=O)cc1 (stereo not drawn) [FL2-14]
[1]; HEK293T cells
  EC50 at 72 h: > 10 µM
[1]; RKO WT cells
  EC50 at 72 h: > 10 µM
RKO WT cells
  cytotoxicity (CellTiter-Glo): not cytotoxic
